The values below come from US8783089B2, “Device and method for determining the properties of aerosol formulations” (Boehringer Ingelheim International GmbH, priority 2008, dated 2014).

This data set in a line: Characterisation of the air-liquid release system (Franz diffusion cell, online UV detection at 225 nm) with dissolved active substance. Type of data set: physicochemical. How it is done: Above the membrane 6 an air chamber is formed as the second compartment 12, and the entire diffusion cell 13 (Franz cell) is surrounded by thermal insulation 9 and can be temperature controlled in the desired manner by means of a hotplate 10. The release medium is mixed by means of a magnetic stirrer 14. In order to characterise the system, first of all salbutamol sulphate, as the sample active substance, was added directly in the form of a dilute solution to the release medium (PBS, phosphate buffered saline) and measured at 225 nm in the photometer. […] Salbutamol sulphate applied to the membrane 6 reaches the maximum concentration after about ten minutes. This means that the membrane 6 forms a diffusion barrier for about six minutes. The total system has a reaction time of about ten minutes, i.e. changes in concentration caused by the release of active substance are detected with a ten minute delay. On the timescale of a typical release test over 24 hours this delay can be disregarded.

As for salbutamol sulphate, where the note is “applied to the membrane 6 (regenerated cellulose), release medium PBS, 225 nm”, the “time until maximum concentration is reached” value is “about ten”. Moreover, the “incubation time until the active substance concentration reaches a plateau” value (dilute solution added directly to the release medium (PBS), measured at 225 nm) is given as “about four”.
